Results published in PMC4669143, “Wild Edible Fruit of Prunus nepalensis Ser. (Steud), a Potential Source of Antioxidants, Ameliorates Iron Overload-Induced Hepatotoxicity and Liver Fibrosis in Mice” (PLoS ONE, 2015).
≈ marks a conversion by molar mass, not a printed value. One block for each compound: values may come before it.

Assays:
[1] = Fe2+ chelating activity assay; assay type: biochemical; details: for Iron chelation activity (in words): Fig 12C
Experimental: (§1) The Fe^2+ chelating ability was determined as described earlier. […] The densitometric analysis of the DNA bands was performed using ImageJ 1.47v tool by the software company NIH, USA. The DNA supercoil protection capacity of the fruit extract was expressed as the [P]50 value, the amount of sample required for 50% protection. The degree of inhibition of Fe^2+-mediated lipid peroxidation was assessed by estimating the TBARS by the method of Ghate et al. 2013 [9] using freshly prepared brain homogenates of Swiss albino mouse brains. The results are expressed as a percentage of inhibition.

[2] = Singlet oxygen scavenging assay; assay type: biochemical; details: mean ± S.D., n = 6
[3] = Peroxynitrite scavenging assay; assay type: biochemical; details: mean ± S.D., n = 6
[4] = tested on: iron overload induced hepatotoxicity in mice; experiment: Serum markers in iron-dextran overloaded mice after oral therapy; assay type: in vivo, Swiss albino mice; details: desirox 20 mg/kg b.w. oral
Experimental: (one dose every alternative days).
Aspartate amino transferase (ASAT), alanine amino transferase (ALAT), and billirubin levels in the serum were evaluated using commercially available kits from Merck (India). Moreover, alkaline phosphatase (ALP) levels in the serum were measured by a kit procured from Sentinel Diagnostics, Italy.

[5] = tested on: Fe2+-mediated lipid peroxidation; experiment: Inhibition of Fe2+-mediated lipid peroxidation (TBARS) in brain homogenates; assay type: biochemical, Swiss albino mouse; details: mouse brain homogenate, mean ± S.D., n = 6
Experimental: as §1

[6] = Superoxide anion scavenging assay; assay type: biochemical; details: mean ± S.D., n = 6
[7] = Hydroxyl radical scavenging assay; assay type: biochemical; details: mean ± S.D., n = 6
[8] = Hypochlorous acid scavenging assay; assay type: biochemical; details: mean ± S.D., n = 6
[9] = DPPH radical scavenging assay; assay type: biochemical; details: mean ± S.D., n = 6
Experimental: Standard methods were used to evaluate the Fe^3+-reducing capacity of the extract. The DPPH (2,2-diphenyl-1-picrylhydrazyl) scavenging potential of the extract was investigated according to Ghate et al, 2013 [9]. The scavenging percentage of PNME was evaluated from the values of the control and the test samples.

Compound: O.Oc1cc(O)c2c(c1)O[C@H](c1ccc(O)c(O)c1)[C@@H](O)C2 [catechin]
Iron chelation activity (in words) [1]: failed to show any activity

Compound: tannic acid
Iron chelation activity (in words) [1]: most potent iron chelator

IC50 Singlet oxygen (1O2) scavenging [2]: 46.15 ± 1.16 µg/mL (≈ 224 µM)
Compound: O=C(O)CCCC[C@@H]1CCSS1 (racemic) [Lipoic acid]

Compound: COC(=O)[C@H]1[C@H]2C[C@@H]3c4[nH]c5cc(OC)ccc5c4CCN3C[C@H]2C[C@@H](OC(=O)c2cc(OC)c(OC)c(OC)c2)[C@@H]1OC [Reserpine, reserpine]
Iron chelation activity (in words) [1]: failed to show any activity

IC50 Peroxynitrite (ONOO-) scavenging [3]: 0.876 ± 0.57 mg/mL (≈ 5150 µM)
Compound: O=C(O)c1cc(O)c(O)c(O)c1 [Gallic acid]

Compound: O=C(O)c1ccc(-n2nc(-c3ccccc3O)nc2-c2ccccc2O)cc1 [desirox, Deferasirox]
ALAT % change ([4]; D, change versus blank group B): 52.80%
ALP % change ([4]; D, change versus blank group B): 84.44%
ASAT % change ([4]; D, change versus blank group B): 17.36%
Bilirubin % change ([4]; D, change versus blank group B): 10.97%
ALAT ([4]; serum, 21 days (D)): 23.55±1.09 ^X3Y3 Unit/L
ALP ([4]; serum, 21 days (D)): 61.01± 2.44 ^X3Y3 Unit/L
ASAT ([4]; serum, 21 days (D)): 79.35±4.37 ^X1 Y3 Unit/L

IC50 Lipid peroxidation [5]: 6.76 ± 0.17 µg/mL (≈ 27 µM)
Compound: Cc1c(C)c2c(c(C)c1O)CCC(C)(C(=O)O)O2 (stereo not shown) [Trolox, 6-hydroxy-2,5,7,8-tetramethylchroman-2-carboxylic acid]

IC50 Superoxide anion (O2•−) scavenging [6]: 42.06 ± 1.35 µg/mL (≈ 139 µM)
Compound: O=c1c(O)c(-c2ccc(O)c(O)c2)oc2cc(O)cc(O)c12 [Quercetin]

IC50 Iron chelating activity ([1]; mean ± S.D., n = 6): 1.27 ± 0.05 µg/mL (≈ 4.35 µM)
Compound: O=C(O)CN(CCN(CC(=O)O)CC(=O)O)CC(=O)O [EDTA, Ethylenediamine tetraacetic acid]

IC50 Hydroxyl radical (OH•) scavenging [7]: 571.45 ± 20.12 µg/mL (≈ 3140 µM)
Compound: OC[C@@H](O)[C@@H](O)[C@H](O)[C@H](O)CO [Mannitol]

IC50 Hypochlorous acid (HOCl) scavenging [8]: 235.96 ± 5.75 µg/mL (≈ 1340 µM)
IC50 DPPH scavenging [9]: 5.29 ± 0.28 µg/mL (≈ 30 µM)
Compound: O=C1O[C@H]([C@@H](O)CO)C(O)=C1O [Ascorbic acid]
Iron chelation activity (in words) [1]: failed to show any activity
